No end group written: not given here.

Here are results for four molecules from US5578566A, “KGF receptor-derived antagonists of KGF binding” (The United States of America as represented by the …, priority 1993, dated 1996).

The nature of one data set: Solubility in water. The data set is classed as physicochemical.
The target in a further data set is T1, KGF receptor (KGFR) (Mus musculus, UniProt P21803).
T1 construct: expressed in transfected cells; host or cells: NIH/3T3
The data set can be described thus: [125I]-KGF binding to NIH/3T3 cells overexpressing KGFR (competition). The following applies: NIH3T3/KGFR transfectants; read-out: displacement of 50% of the radiolabeled KGF. How it is done: Values shown are the mean of triplicate samples. Results are representative of three separate experiments.
[^125 I]-KGF binding to NIH/3T3 cells overexpressing KGFR was measured as described in Bottaro et al., supra. Competition studies were performed with unlabeled KGF or peptides as indicated.

The target of another data set is T2, KGF (Homo sapiens, UniProt P21781).
T2 construct: made in house
T2 sequence (P21781 32-194): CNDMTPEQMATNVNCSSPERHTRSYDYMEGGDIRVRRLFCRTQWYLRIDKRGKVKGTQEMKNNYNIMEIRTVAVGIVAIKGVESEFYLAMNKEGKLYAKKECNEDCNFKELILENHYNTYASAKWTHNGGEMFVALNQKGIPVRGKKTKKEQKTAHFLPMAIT
As to the kind of experiment: KGF radioimmunoassay: immunoprecipitation of [125I]-KGF by monoclonal antibody 1G4. The data set is classed as binding. How it is done:
Upper Panel: Immunoprecipitation of [^125 I]-KGF competed by KGF, aFGF, aFGF+heparin (30 μg/ml), peptide 412 (SEQ ID NO 2) or peptide 341. Lower Panel: Immunoprecipitation of [^125 I]-KGF competed by KGF, KGF+heparin (1, 10, or 30 μg/ml, as indicated), peptide 412 (SEQ ID NO 2), or peptide 412 (SEQ ID NO 2)+heparin (1, 10, or 30 μg/ml, as indicated). Values are the mean of duplicate samples, expressed as % maximum [^125 I]-KGF bound. Raw values for background and maximum [^125 I]-KGF bound were approximately 300 and 12,000 cpm/sample, respectively. Results are representative of three separate experiments.
[^125 I]-KGF was immunoprecipitated by 1G4 in the presence of unlabeled KGF, aFGF, or peptides as indicated. Briefly, 1G4 (4 ng/ml final concentration), [^125 I]-KGF (30,000 cpm), and appropriate competitors were mixed in 200 μl of buffer containing 10 mM Tris (pH 7.4), 130 mm NaCl, 1 mM EDTA, 10 mM KC1, 1% NP-40, 0.1% SDS, 0.05% Tween-20, and 0.3% nonfat dry milk, and incubated for 24h at 4° C. Antigen-antibody complex was recovered by adding 30 ul (50% suspension) GammaBind-G Sepharose, incubating an additional 30 min at 4° C. (turning gently), and brief centrifugation (5 min at 14,000×g, 4° C.). Pelleted material was washed three times ([…] each) with cold buffer, and radioactivity was measured by gamma counting.

The next data set relates to KGF mitogenic activity. The following applies: Ron et al.; cited from earlier work.

T1 sequence (P21803 22-707 isoform P21803-2 limits assumed): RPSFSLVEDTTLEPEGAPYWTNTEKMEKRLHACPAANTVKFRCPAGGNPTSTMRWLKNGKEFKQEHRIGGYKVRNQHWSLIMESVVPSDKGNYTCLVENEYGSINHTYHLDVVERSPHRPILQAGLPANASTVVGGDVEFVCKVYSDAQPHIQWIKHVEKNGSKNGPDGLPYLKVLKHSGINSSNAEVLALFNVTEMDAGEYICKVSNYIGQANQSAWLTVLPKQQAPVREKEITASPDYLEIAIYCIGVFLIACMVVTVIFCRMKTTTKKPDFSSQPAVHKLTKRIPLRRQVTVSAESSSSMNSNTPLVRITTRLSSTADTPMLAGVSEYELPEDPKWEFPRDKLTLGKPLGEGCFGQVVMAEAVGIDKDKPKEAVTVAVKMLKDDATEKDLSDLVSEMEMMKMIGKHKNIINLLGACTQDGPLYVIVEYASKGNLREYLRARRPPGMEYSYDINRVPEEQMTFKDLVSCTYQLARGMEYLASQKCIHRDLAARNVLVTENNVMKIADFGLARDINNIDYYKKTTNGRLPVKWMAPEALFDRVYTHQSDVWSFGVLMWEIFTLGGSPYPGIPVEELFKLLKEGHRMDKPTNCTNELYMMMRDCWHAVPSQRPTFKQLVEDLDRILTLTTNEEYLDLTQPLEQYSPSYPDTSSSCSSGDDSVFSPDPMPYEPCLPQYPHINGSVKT

For HSGINSSNAEVLALFNVTEM [peptide 367], the “water solubility relative to its highest ED50” value in “Solubility in water” is reported as “approximately 30 fold”. Further, the solubility in the data set “Solubility in water” (read-out: limit of solubility in water) was 125 µM. Also, the IC50 at KGF receptor (KGFR) is roughly 4 µM.
On to HSGINSSNAEVLALFNVTEMDAGEY [peptide 412], for which, in “Solubility in water”, the “water solubility relative to its highest ED50” value was greater than 3000 fold. In addition, the IC50 is roughly 4 µM at KGF receptor (KGFR) and roughly 1 µM on KGF (KGF RIA, read-out: concentration required to achieve 50% displacement of [125I]-KGF from 1G4). Further, the Kd on KGF (consistent with data from receptor binding assay and RIA, read-out: Kd for KGF/peptide interactions) is 1 to 2 µM.
In the case of heparin [reference compound], in the data set on KGF mitogenic activity, the “effect on KGF mitogenesis” value is “inhibits KGF mitogenesis”. On KGF (KGF RIA), the “competition / displacement of [125I]-KGF from 1G4” value is “had no effect”.

B1: aFGF: Acidic FGF purified from bovine brain, from Upstate Biotechnology (protein, UniProt P03968 16-155, looked up)
Fibroblast growth factor 1: FNLPLGNYKKPKLLYCSNGGYFLRILPDGTVDGTKDRSDQHIQLQLCAESIGEVYIKSTETGQFLAMDTDGLLYGSQTPNEECLFLERLEENHYNTYISKKHAEKHWFVGLKKNGRSKLGPRTHFGQKAILFLPLPVSSD
For the molecule B1, the “competition / displacement of [125I]-KGF from 1G4” value with KGF (KGF RIA) is reported as “but not aFGF, even at a 1000-fold higher concentration”. In the data set with KGF (heparin 30 μg/ml), the “competition in the KGF RIA with addition of heparin” value was “did not cause aFGF to compete”.
